The values that follow come from publication PMC12037037 (Proceedings of the National Academy of Sciences of the …, 2025).

In assay [1] the test system is panel of 55 central nervous system targets. Kind of assay: Competitive radioligand binding selectivity panel (Eurofins Discovery). How it is done: Figure S3. Selectivity profiles for (+)-JRT and (–)-JRT across 55 central nervous system targets. The effects of (+)- JRT (10 μM) and (–)-JRT (10 μM) on a wide range of targets were assessed by Eurofins Discovery. Data represent % inhibition of the binding of a radioactively labeled ligand specific for each target. Assays were conducted in duplicate and the results were averaged.
Data Analysis and Statistics. Treatments were randomized, and data were analyzed by experimenters blinded to treatment conditions. Statistical analyses were performed using GraphPad Prism (version 10.0.3) unless noted otherwise.
All comparisons were planned prior to performing each experiment. No data were excluded. Data are represented as mean ± SEM, unless noted otherwise, with asterisks indicating *p < 0.05, **p < 0.01, ***p < 0.001, and ****p < 0.0001. Details of all statistical tests are shown in SI Appendix, Table S1. […]
Both (+)-JRT and (–)-
JRT were synthesized in-house and judged to be analytically pure based on NMR and LC-MS data. For cell culture experiments, VEH = 0.1% (agonist studies) or 0.2% (antagonist studies) molecular biology grade dimethyl sulfoxide (Sigma-Aldrich). For in vivo experiments, compounds were administered i.p. at 5 mL/kg using 0.9% saline as the vehicle, unless noted otherwise. VEH = USP grade saline (0.9%). Stock solutions for behavioral assays were prepared fresh before use.
Fumarate salts of (+)-JRT and (–)-JRT were used for all biological studies unless noted otherwise.
Animals. All experimental procedures involving animals were approved by the Institutional Animal Care and Use Committee (IACUC) at the University of California, Davis, the Salk Institute, Weill Cornell Medicine, McLean Hospital (Harvard Medical School), or the Contract Research Organization (CRO) where the study was performed. All procedures involving animals adhered to principles described in the National Institutes of Health Guide for the Care and Use of Laboratory Animals.
Animals were either obtained from Jackson Laboratory (Sacramento, C.A.) or bred in-house unless noted otherwise. Power analyses were conducted to ensure appropriate sample sizes for all experiments involving animals. Animals were housed 2–5 animals of the same sex per cage on a 12h light/dark cycle and were given ad libitum access to food and water unless noted otherwise. The University of California, Davis, the Salk Institute, and Weill Cornell Medicine are accredited by the Association for Assessment and Accreditation of Laboratory Animal Care International (AAALAC). Whenever possible, both sexes were utilized. However, a single sex was utilized in some cases when 1) a contract research organization had only […]
Radioligand Binding Selectivity Panel. Competitive radioligand binding studies for (+)-JRT (10 μM) and (–)-JRT (10 μM) were performed across a panel of receptors at Eurofins Discovery. Experiments were performed using the free bases of […]
radioligand and source of receptor (5,6,7,8,9,10,11,12).
Radioligand Binding Assays (5-HT2AR and 5-HT2CR). The 5-HT2AR and 5-HT2CR competitive radioligand binding assays were performed at Epics Therapeutics S.A. (Belgium, FAST-0505B) using conventional methods. Experiments were performed using the free bases of (+)-JRT and (–)-JRT. […] Nonspecific binding was determined by co-incubation with 200-fold excess of cold competitor DOI. […]

A further assay has as its system C57BL/6J mice. Kind of assay: Amphetamine-induced locomotion. The class given is in vivo. Conditions: VEH + AMPH 3 mg/kg. The protocol:
Figure S11. […] (A) Pretreatment with (+)-JRT (1 mg/kg,
(§1) IP) can block AMPH-induced hyperlocomotion in female, but not male, mice. (B) Pretreatment with (+)-JRT (1 mg/kg, IP) […]
(§2) AMPH = (+)-amphetamine; PCP = phencyclidine; VEH = vehicle; ns = not significant. *p < 0.05, **p < 0.01, ***p < 0.001, ****p < 0.0001, as compared to the comparator(s) indicated by a horizontal bar. See Methods and SI Appendix, Table S1 for full details on statistics.
(1 picture or pasted object on this page, not shown here)
Amphetamine-Induced Locomotion. The amphetamine-induced hyperlocomotion assay was performed using male and female C57BL/6J mice that were approximately 8 weeks old at the time of the experiments. Animals were first placed in the test arena (40 cm x 40 cm) for 15 min to obtain a basal reading of locomotion and habituate them to the testing arena.
Next, animals were administered (+)-JRT (1 mg/kg) or VEH (2.5 mL/kg, i.p) and placed back in the test arena. After 15 min, the animals were administered (+)-amphetamine (3 mg/kg) or VEH (2.5 mL/kg) and placed back in the test arena for 60 minutes. Locomotion during the entire experiment was quantified using ANYmaze Video Tracking System, version 7.07 (Stoelting Co.). The test arena was cleaned thoroughly with 70% ethanol between trials. […]
(§3) Reads were aligned to the GRCm39 genome assembly using STAR, processed with Picard, and counted with the Subread software. Transcript inclusion criteria consisted of a minimum raw expression level of 25 transcripts in a minimum of 4 samples. Surrogate variable analysis was conducted with the sva package 2023 release v3.5.0 in R and normalization and differential expression analysis was performed with DESeq2 v4.3 with a baseMean threshold of 10. Heatmaps were created with the pheatmap v1.0.12 with sample-wise z-scores plotted and both row and column grouping allowed using pearson's distances and ward.D for clustering. Gene-wise selection criteria for heatmaps were a baseMean expression threshold of 50 to focus on robustly expressed genes, p value < 0.05, and presence in the top 250 genes sorted by absolute value of log2FC. Additionally, z score was capped at 2 for visualization purposes. Schizophrenia gene sets were extracted from a recent TWAS study (30).
(§4) For Figure S8G, the TWAS set was filtered for FDR < 0.01. Permutation testing was conducted to quantify the overlap of top genes from schizophrenia TWAS with the perm_test function from the bulkWarehouse package 2023 release v1.2.7.
(§5) Briefly, the intersection of top differentially expressed genes and top TWAS genes is compared to an empirical distribution created by calculating the intersection with our top DEGs when randomly sampling candidate genes from our dataset equal to the size of the TWAS sample. […]

Assay [2] deals with cultured rat embryonic cortical neurons. The experiment in a line: Neuritogenesis assay (Sholl analysis, DIV6). The class given is cell-based. The settings on record: 1 µM, DIV6, mean ± SEM.
Protocol: Figure S8. […] (A) Sholl analysis of embryonic day 18 (E18) rat cortical
(D) Area under the curves of the Sholl plots
N values are shown within the bars. VEH =
Neuritogenesis Assays. Neuritogenesis Assays were performed as previously described (17) with slight modifications.
Briefly, 96 well plates were coated with poly-D-lysine and approximately 15,000 cells/well. Neurons were treated after 3 days in vitro (DIV3) for 1 h followed by a complete media change. Cells were incubated for an additional 3 days before fixing and staining for MAP2 on DIV6. Neurites were visualized using a chicken anti-MAP2 antibody (1:10,000; EnCor, CPCA-MAP2) and an anti-chicken IgG secondary antibody conjugated to Alexa Fluor 488 (Life Technologies, 1:500). Plates were imaged in DPBS on a Thermo Scientific CellInsight CX7 High-Content Screening Platform at 20x (N.A. = 0.45). Images were analyzed using the Simple Neurite Tracer and Sholl analysis plug-ins for ImageJ Fiji (version 1.51N). Sholl analysis circle radii = 2 µm increments. All images were taken and analyzed by an experimenter blinded to treatment conditions.
Another assay concerns male Long Evans rats. Kind of assay: Probabilistic reward task (PRT) under chronic cold-water stress. The class given is in vivo. The settings on record: KET 10 mg/kg IP.
In the next assay the test system is male Sprague Dawley rats. The experiment in a line: Rat forced swim test (FST). The class given is in vivo. Conditions: 10mg/kg IP, 24 h after administration. How it is done:
as §3, §4
Briefly, the intersection of top differentially expressed genes and top TWAS genes is compared to an empirical distribution created by calculating the intersection with our top DEGs when randomly sampling candidate genes from our dataset equal to the size of the TWAS sample. Selection criteria from the TWAS include an expression level of 25 transcripts in a minimum of 4 samples in our dataset, FDR < 0.01 from the TWAS and top 250 sorted by absolute value of log2FC. Selection criteria from our gene set were an expression level of 25 transcripts in a minimum of 4 samples, p value < 0.1 and top 250 sorted by absolute value of log2FC.
Rat Forced Swim Test (FST). This study was performed by Psychogenics (Paramus, NJ). Male Sprague Dawley rats were purchased from Envigo (Indianapolis, IN), and were 8 weeks old at the time of the experiments. Upon receipt, they were assigned unique identification numbers (tail marked) and group housed in ventilated cages with 3 rats per cage. All animals […]
remained housed in groups of three for the remainder of the study. All rats were acclimated to the colony room for up to one week prior to dosing. During the period of acclimation, rats were examined and handled daily, and weighed to assure adequate health and suitability. The room temperature was maintained between 20 °C and 23 °C with a relative humidity of 30%–70%. Lab Rodent Diet 5001 (W.F. Fisher, Cat # 11015) and water were provided ad libitum. Animals were randomly assigned across treatment groups. All testing was performed during the light phase of the light/dark cycle. Behavioral testing was conducted according to established protocols approved by the IACUC committee and PGI Standard Operation Procedures (SOP). Each forced swim chamber was constructed of clear acrylic (height = 40 cm; diameter = 20.3 cm). Only one rat was placed in the swim chamber at a time for each swim test. The water was changed and the chamber cleaned between each animal. The water depth was 16 cm in the first swim session (pre-test) and 30 cm in the second swim session (test). The water was maintained at 23 °C ± 1 °C for all swim sessions. At the end of each swim test rats were dried with paper towels and returned to the home cage. All animals were carefully monitored to ensure their safety in the swim test and any animal unable to maintain a posture with its nose above water was immediately removed from the water and not used further in the study. Animals were first subjected to a pre-test for 15 min. Immediately after the pre-test, they were administered compounds or VEH via i.p. injection (1 ml/kg). Racemic ketamine hydrochloride (10 mg/kg) was used as a positive control. A salt correction factor of 1.36 was used when preparing formulations of (+)-JRT to ensure that the dose corresponded to that of the free base. […]

The test system of another assay is male C57BL/6J mice. Kind of assay: PCP-induced locomotion (Psychogenics). The class given is in vivo. Conditions: VEH + PCP 5 mg/kg IP; VEH + VEH 11101 ± 1709. How it is done:
as §1, §2
(1 picture or pasted object on this page, not shown here) […]
PCP-Induced Locomotion. The PCP-induced hyperlocomotion assay was performed by Psychogenics using male C57BL/6J mice that were approximately 8 weeks old at the time of the experiments. The experiment was performed during the animal’s light cycle phase. On the day of testing, animals were acclimated to the experimental room for at least 1 h prior to treatment. Animals were then administered with VEH or JRT (IP, 10 mL/kg) and placed in holding cages for 30 min, after which mice were placed in the open field chambers (27.3 x 27.3 x 30.3; Med Associates Inc., St Albans, VT). Baseline activity was recorded for 30 min. Next, mice received either PCP (5 mg/kg, IP, 10 ml/kg) or VEH and were returned to the open field chambers for a 60 min test session. Locomotion was assessed using consecutive infrared beam breaks. At the end of each session, the chambers were thoroughly cleaned. […]
as §3, §4, §5

Each structure is given as a SMILES string.

For `CCN(CC)C(=O)[C@H]1C=C2c3cccc4ccn(c34)C[C@@H]2N(C)C1` [(–)-JRT], in assay [1] (10 μM, free bases), the “Selectivity across panel of 55 central nervous system targets” value is given as “highly selective for a subset of serotonin receptors”. For the same compound, the “Affinity for dopamine, histamine, or adrenergic receptors” value in assay [1] (radioligand binding, unlike LSD) was “neither of these compounds exhibited affinity”.
As to `C[C@H](N)Cc1ccccc1` [AMPH, (+)-amphetamine, reference compound], the “Locomotion (Figure 11A Females)” value with C57BL/6J mice (female mice, VEH + VEH 101.9 ± 15.04) is 418.5 ± 32.97. Moreover, the “Locomotion (Figure 11A Males)” value in the assay on C57BL/6J mice (male mice, VEH + VEH 59.80 ± 4.206) is reported as 330.5 ± 74.31.
As for `CN1CCN(C2=Nc3cc(Cl)ccc3Nc3ccccc32)CC1` [CLZ, clozapine, reference compound], the “Area under the curves of the Sholl plots (Figure S8D)” value in assay [2] (VEH 1.000 ± 0.05010) is recorded as 1.045 ± 0.04563. In addition, the “Total branches (Figure S8C)” value in assay [2] (VEH 2.325 ± 0.2641) worked out at 3.280 ± 0.2858. Besides, in assay [2] (VEH 6.275 ± 0.2292), the “Number of primary dendrites (Figure S8B)” value was 7.620 ± 0.2586.
Regarding `CNC1(c2ccccc2Cl)CCCCC1=O` (centres unmarked) [Ketamine, ketamine, reference compound], the “Response bias (log b) (Figure 6G)” value in the assay on male Long Evans rats (Day 2, Day 1 0.120 ± 0.042) amounted to 0.330 ± 0.035; with male Long Evans rats (Day 3, Day 1 0.120 ± 0.042), 0.304 ± 0.091; in the assay on male Long Evans rats (Day 11, Day 1 0.120 ± 0.042) it was 0.266 ± 0.086; in the assay with male Long Evans rats (Day 1 (stressed, before drug) 0.120 ± 0.042), 0.457 ± 0.070. The “Swimming (Figure 6B)” value in the assay with male Sprague Dawley rats (VEH 22.10 ± 1.929) is recorded as 34.10 ± 1.187. The “Immobility (Figure 6B)” value in the assay with male Sprague Dawley rats (VEH 37.20 ± 1.867, of 60 scored behaviors) is 25.00 ± 1.265.
Regarding `c1ccc(C2(N3CCCCC3)CCCCC2)cc1` [PCP, phencyclidine, reference compound], in the assay with male C57BL/6J mice, the “Locomotion, infrared beam breaks (Figure 11B)” value came to 26552 ± 1179.
